According to ChEMBL document CHEMBL3507680, “University of Dundee, Gates Library screen for HepG2 cell viability”:
Several values for one entry are separate records, joined by “and”; a condition that tells them apart may be missing. Equal values may be shown once.

Experiment: Human HepG2 cell viability assay in 384 well format
Format: toxicity, cell-based
Set-up: dose 125 nL, time 70.5 hour; concentration not given beside the values
Conditions: HepG2 cells, read-out: Inhibition

Compound | cytotoxicity at 70.5 h [%]
CCCc1nc2c(c(C)c(C)n2Cc2ccccn2)c(N)c1CC | 80.2
COc1cc(NC(=O)C2CC(=O)N(c3cccc(Br)c3)C2)ncn1 (stereo not drawn) | 91.5
c1cncc(CN2CCCn3nnc(CN4CCCCC4)c3C2)c1 | 65.6
O=C(C[C@@H]1COC[C@H]2CN(C3CCOCC3)C[C@@H]12)Nc1cnccn1 | 76.4
COC[C@H]1CCC[C@]12CN(Cc1cccc(C)n1)CCO2 | 63.1
O=C(Cn1cc(-c2ccccc2)ncc1=O)Nc1nc(C2CC2)n[nH]1 | 99.8
CCS(=O)(=O)N1CCc2ccc(NC(=O)Nc3cccc(SC)c3)cc21 | 63.9
CSc1ccc(NC(=O)Nc2ccc3c(c2)N(S(C)(=O)=O)CC3)cc1 | 68.5
CCc1ccc(-c2cc(C(F)(F)F)nc(N3CCC(N)CC3)n2)cc1 | 101
Cc1cccc(C)c1Nc1noc2c1CN(C(=O)c1ccnn1C)CC2 | 69.8
Cc1cccc(CN2CCCC2c2cccc(Nc3nccs3)n2)c1 (stereo not drawn) | 84.1
CC(C)Nc1cc(-c2c[nH]nc2C2CCN(C(=O)C3CC3)C2)ccn1 (stereo not drawn) | 96.7
CC(C)CNc1cc(-c2c[nH]nc2C2CCN(C(=O)C3CC3)C2)ccn1 (stereo not drawn) | 95.1
COc1ccc(CNC(Cc2ccsc2)c2ccc(C)cn2)c(OC)c1 (stereo not drawn) | 85.3
O=C(c1cccc2cccnc12)N1CC[C@@]2(CCCO2)[C@@H](O)C1 | 74.5
CC(C)c1cc(NC(=O)Cn2cnc3ccccc3c2=O)[nH]n1 | 104
CC(C)OCCN1CCC(Nc2nccnc2C#N)CC1 | 62.9
CC(C)N(C)C(=O)c1ccc(CNc2ccncc2Cl)cc1 | 74.8
CC(C)n1ccc(C(=O)NCC(O)c2c(Cl)cccc2Cl)n1 (stereo not drawn) | 65.8
CN(C(=O)[C@H]1CSCN1C(=O)OC(C)(C)C)C1CC1 | 73.6
Cc1cc(C)cc(C(=O)NCCCNc2ncccn2)c1 | 101
CC(C)c1ccc(CN2C(=O)C3(CCNCC3)Nc3ccccc32)cc1 | 105
Clc1ccccc1C1(c2ccnc(C3CCCC3)n2)CCNCC1 | 73

Compound | cytotoxicity at 70.5 h [%]
COCc1noc(-c2ccc(N(C)Cc3ncccc3C)nc2)n1 | 73.3
COc1ccccc1N1CCN(C(=O)CSCC2CC2)C(C)C1 (stereo not drawn) | 97.2
CC1(C)Cc2nc(C(C)(C)C)ncc2C(NC(=O)C2(N)CC2)C1 (stereo not drawn) | 105
C=Cc1ccc(CN2C(=O)C3(CCNCC3)Nc3ccccc32)cc1 | 102
CCc1c(C(=O)NC2CCS(=O)(=O)C2)cnn1-c1ccc(F)cc1 (stereo not drawn) | -22.6
CCOc1ccc(C#N)cc1NCC(=O)Nc1cc(F)ccc1F | 6.71
CCOc1ccc(C#N)cc1NCC(=O)Nc1cc(C)no1 | -14.1
CCc1c(C(=O)NCC(=O)OCC2CC2)cnn1-c1ccc(C)cc1 | 27.6
Cc1cc(CNC(=O)N2CCCN(Cc3ccccc3)CC2)no1 | -9.16
CCN(CC1CCCO1)C(=O)Nc1ccc(F)cc1OC (stereo not drawn) | -8.02
c1ccc(-c2cnc(CN3CCCC3Cn3cncn3)o2)cc1 (stereo not drawn) | -14.6
CC(C)(C)c1nnc(CN2CCN(CC(O)c3ccccc3)CC2)o1 (stereo not drawn) | -11.1
Cc1cccc(NC2CCN(C(=O)Nc3cccc4[nH]ccc34)CC2)n1 | -8.86
CCC(O)CN1CCN(C(=O)c2cccn2Cc2ccccc2)CC1 (stereo not drawn) | -10.3
Fc1cccc(-c2nc(CN3CCCCC3Cn3cncn3)co2)c1 (stereo not drawn) | -15.4
CN(Cc1ccc(F)cc1)C(=O)NCc1nnc2n1CCCCC2 | 33.6
COCCCN1CCc2cncnc2C1 | -18.2
O=C(c1cccc2c1OCO2)N1CCCC1c1noc(C2CC2)n1 (stereo not drawn) | 31.3
Cc1nc(Nc2nccs2)cc(C2CCCN2)n1.Cl (stereo not drawn) | 101
COc1nn(C)c2c1CCCN(C(=O)c1ccc3c(c1)OCO3)C2.O=C(O)C(F)(F)F | 77.9
COc1c(-c2ccc(O)cc2)oc2cc(O)cc(O)c2c1=O [ISOKAEMPFERIDE] | -8.89
CCCNC(=O)C(C)Nc1ccc(OCC)cc1 (stereo not drawn) [PROPETAMIDE] | -8.27

Experiment: Human HepG2 cell viability dose-response assay
Format: toxicity, cell-based
Conditions: not given

Compound | BOTTOM | HILLSLOPE | TOP | pXC50
CCCc1nc2c(c(C)c(C)n2Cc2ccccn2)c(N)c1CC | 13.8 and 17.26 | 1.43 and 1.529 | 100 | 5.166 and 5.178
COc1cc(NC(=O)C2CC(=O)N(c3cccc(Br)c3)C2)ncn1 (stereo not drawn) | 13.61 and 20.88 | 5.533 and 3.735 | 100.7 and 101.2 | 5.491 and 5.506
c1cncc(CN2CCCn3nnc(CN4CCCCC4)c3C2)c1 | 0 | 0 | 0 | < 4.53
O=C(C[C@@H]1COC[C@H]2CN(C3CCOCC3)C[C@@H]12)Nc1cnccn1 | 0 | 0 | 0 | < 4.53
COC[C@H]1CCC[C@]12CN(Cc1cccc(C)n1)CCO2 | 0 | 0 | 0 | < 4.53
O=C(Cn1cc(-c2ccccc2)ncc1=O)Nc1nc(C2CC2)n[nH]1 | -8.692 and -5.853 | 2.68 and 2.241 | 101 and 102.4 | 5.614 and 5.594
CCS(=O)(=O)N1CCc2ccc(NC(=O)Nc3cccc(SC)c3)cc21 | -6.506 and -6.611 | 1.266 and 1.157 | 100 | 5.029 and 4.966
CSc1ccc(NC(=O)Nc2ccc3c(c2)N(S(C)(=O)=O)CC3)cc1 | -10.17 and -8.332 | 0.8924 and 0.8709 | 100 | 4.975 and 4.922
CCc1ccc(-c2cc(C(F)(F)F)nc(N3CCC(N)CC3)n2)cc1 | 0.817 and 1.062 | 8.779 and 6.129 | 102.2 and 102.5 | 5.566 and 5.542
Cc1cccc(C)c1Nc1noc2c1CN(C(=O)c1ccnn1C)CC2 | -5.714 and -2.53 | 1.878 and 1.75 | 100 | 4.825 and 4.807
Cc1cccc(CN2CCCC2c2cccc(Nc3nccs3)n2)c1 (stereo not drawn) |  | 2.773 and 1.557 | 82.62 and 100 | 6.512 and 6.485
CC(C)Nc1cc(-c2c[nH]nc2C2CCN(C(=O)C3CC3)C2)ccn1 (stereo not drawn) |  | 3.535 and 2.719 | 97.3 and 97.69 | 6.519 and 6.486
CC(C)CNc1cc(-c2c[nH]nc2C2CCN(C(=O)C3CC3)C2)ccn1 (stereo not drawn) | -0.825 and -1.513 | 7.855 and 3.586 | 97.39 and 97.86 | 6.385 and 6.436
COc1ccc(CNC(Cc2ccsc2)c2ccc(C)cn2)c(OC)c1 (stereo not drawn) |  | 2.726 and 2.464 | 91.22 and 91.65 | 5.292 and 5.344
O=C(c1cccc2cccnc12)N1CC[C@@]2(CCCO2)[C@@H](O)C1 | -1.598 and -1.635 | 1.904 and 1.967 | 100 | 4.773 and 4.744
CC(C)c1cc(NC(=O)Cn2cnc3ccccc3c2=O)[nH]n1 | -4.443 and -6.453 | 2.259 and 2.3 | 101.3 and 101.4 | 5.61 and 5.595
CC(C)OCCN1CCC(Nc2nccnc2C#N)CC1 | -6.463 and -12.72 | 1.108 and 0.9682 | 100 | 5.071 and 5.086
CC(C)N(C)C(=O)c1ccc(CNc2ccncc2Cl)cc1 | 0 | 0 | 0 | < 4.53
CC(C)n1ccc(C(=O)NCC(O)c2c(Cl)cccc2Cl)n1 (stereo not drawn) | 0 | 0 | 0 | < 4.53
CN(C(=O)[C@H]1CSCN1C(=O)OC(C)(C)C)C1CC1 | 0 | 0 | 0 | < 4.53
Cc1cc(C)cc(C(=O)NCCCNc2ncccn2)c1 | -7.868 and -9.506 | 17.28 and 6.436 | 100.1 and 99.9 | 5.413
CC(C)c1ccc(CN2C(=O)C3(CCNCC3)Nc3ccccc32)cc1 | -7.959 and -9.531 | 9.317 and 9.377 | 102.3 and 101.9 | 4.989 and 5.005
Clc1ccccc1C1(c2ccnc(C3CCCC3)n2)CCNCC1 | 17.52 and 27.16 | 2.801 and 2.528 | 108.2 and 108.3 | 5.086 and 5.104
COCc1noc(-c2ccc(N(C)Cc3ncccc3C)nc2)n1 | -13.69 and -12.76 | 1.85 and 1.799 | 100 | 5.092
COc1ccccc1N1CCN(C(=O)CSCC2CC2)C(C)C1 (stereo not drawn) | 0 | 0 | 0 | < 4.53
CC1(C)Cc2nc(C(C)(C)C)ncc2C(NC(=O)C2(N)CC2)C1 (stereo not drawn) | 0 | 0 | 0 | < 4.53
C=Cc1ccc(CN2C(=O)C3(CCNCC3)Nc3ccccc32)cc1 | -4.877 and -3.437 | 10.74 and 12.71 | 102 | 5.033 and 5.016
Cc1nc(Nc2nccs2)cc(C2CCCN2)n1.Cl (stereo not drawn) | 11.4 and 11.68 | 4.445 and 3.614 | 100.1 and 100.5 | 5.52 and 5.57
COc1nn(C)c2c1CCCN(C(=O)c1ccc3c(c1)OCO3)C2.O=C(O)C(F)(F)F | 0 | 0 | 0 | < 4.53
